Measurements published in patent US9938257B2 (Sunshine Lake Pharma Co., Ltd., priority 2015, dated 2018).
pIC50: −log10 of the molar value.

Assays:
[1] = Compound stability in rat liver microsomes; format: in vitro ADME; settings: pH 7.4; for half-life at 5 μM: rat liver microsomes 0.5 mg protein/mL, compound 5 μM, NADPH 1.0 mM, 37° C., read-out: Rat T1/2; for CLint scaled at 5 μM: rat liver microsomes, in vivo CLint extrapolated
Method: (§1) Human or rat liver microsomes incubations were conducted in duplicate in polypropylene tubes. The typical incubation mixtures consisted of human or rat liver microsomes (0.5 mg protein/mL), compounds of interest (5 μM) and NADPH (1.0 mM) in a total volume of 200 μL potassium phosphate buffer (PBS, 100 mM, pH 7.4). Compounds were dissolved in DMSO and diluted with PBS such that the final concentration of DMSO was 0.05%. The enzymatic reactions were commenced with the addition of protein after a 3-min preincubation and incubated in a water bath open to the air at 37° C. Reactions were terminated at various time points (0, 5, 10, 15, 30, 60 min) by adding equal volume of ice-cold acetonitrile. The samples were stored at −80° C. until LC/MS/MS assays.
(§2) The concentrations of compounds in the incubation mixtures of human or rat liver microsomes were determined by a LC/MS/MS method. The ranges of the linearity in the concentration range were determined for each tested compounds.
(§3) A parallel incubation was performed using denatured microsomes as the negative control, and reactions were terminated at various time points (0, 15, 60 min) after incubation at 37° C.
(§4) Dextromethorphan (70 μM) was selected as the positive control, and reactions were terminated at various time points (0, 5, 10, 15, 30, 60 min) after incubation at 37° C. Both positive and negative control samples were included in each assay to ensure the integrity of the microsomal incubation system.
(§5) The concentrations of compounds in human or rat liver microsome incubations were plotted as a percentage of the relevant zero time point control for each reaction. The in vivo CLint were extrapolated (ref.: Naritomi, Y.; Terashita, S.; Kimura, S.; Suzuki, A.; Kagayama, A.; and Sugiyama, Y.; Prediction of human hepatic clearance from in vivo animal experiments and in vitro metabolic studies with liver microsomes from animals and humans. Drug Metab. Dispos., 2001, 29: 1316-1324).

[2] = molecular target: Aurora-A (h) (Homo sapiens (Human), UniProt O14965); test: Aurora-A (h) kinase activity assay; format: biochemical
Aurora-A (h), sequence (O14965 whole entry): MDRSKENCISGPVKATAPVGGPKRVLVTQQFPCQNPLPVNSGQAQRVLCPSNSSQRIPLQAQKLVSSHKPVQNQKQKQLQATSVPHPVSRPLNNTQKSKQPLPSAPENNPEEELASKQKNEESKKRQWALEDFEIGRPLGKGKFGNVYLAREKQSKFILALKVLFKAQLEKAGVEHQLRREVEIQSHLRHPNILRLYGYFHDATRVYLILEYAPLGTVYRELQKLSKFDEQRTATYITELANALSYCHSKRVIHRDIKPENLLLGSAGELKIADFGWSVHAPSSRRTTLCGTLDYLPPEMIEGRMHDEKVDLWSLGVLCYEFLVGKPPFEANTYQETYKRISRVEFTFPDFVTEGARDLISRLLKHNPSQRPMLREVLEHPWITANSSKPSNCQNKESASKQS
Method: (§6) The above assay procedure can be used to determine the IC50 for inhibition and/or the inhibition constant, Ki. The IC50 is defined as the concentration of compound required to reduce the enzyme activity by 50% under the condition of the assay. The IC50 value is estimated by preparing a 10 point curve using a ½ log dilution series (for example, a typical curve may be prepared using the following compound concentrations: 3 μM, 1 μM, 0.3 μM, 0.1 μM, 0.03 μM, 0.01 μM, 0.003 μM, 0.001 μM, 0.0003 μM and 0 μM).
(§7) Aurora-A (h) is incubated with 8 mM MOPS pH 7.0, 0.2 mM EDTA, 200 μM LRRASLG (Kemptide), 10 mM MgAcetate and [γ-^33P-ATP] (specific activity approx. 500 cpm/pmol, concentration as required). The reaction is initiated by the addition of the MgATP mix. After incubation for 40 minutes at room temperature, the reaction is stopped by the addition of 3% phosphoric acid solution. 10 μL of the reaction is then spotted onto a P30 filtermat and washed three times for 5 minutes in 75 mM phosphoric acid and once in methanol prior to drying and scintillation counting.
(§8) The kinase assays described herein were performed at Millipore UK Ltd, Dundee Technology Park, Dundee DD2 1SW, UK.

[3] = Compound stability in human liver microsomes; format: in vitro ADME; settings: pH 7.4; for half-life at 5 μM: human liver microsomes 0.5 mg protein/mL, compound 5 μM, NADPH 1.0 mM, 37° C., read-out: Human T1/2; for CLint scaled at 5 μM: human liver microsomes, in vivo CLint extrapolated
Method: as §1, §2, §3, §4, §5

[4] = molecular target: JAK1 (h) (Homo sapiens (Human), UniProt P23458); test: JAK1 (h) kinase activity assay; format: biochemical
JAK1 (h), sequence (P23458 whole entry): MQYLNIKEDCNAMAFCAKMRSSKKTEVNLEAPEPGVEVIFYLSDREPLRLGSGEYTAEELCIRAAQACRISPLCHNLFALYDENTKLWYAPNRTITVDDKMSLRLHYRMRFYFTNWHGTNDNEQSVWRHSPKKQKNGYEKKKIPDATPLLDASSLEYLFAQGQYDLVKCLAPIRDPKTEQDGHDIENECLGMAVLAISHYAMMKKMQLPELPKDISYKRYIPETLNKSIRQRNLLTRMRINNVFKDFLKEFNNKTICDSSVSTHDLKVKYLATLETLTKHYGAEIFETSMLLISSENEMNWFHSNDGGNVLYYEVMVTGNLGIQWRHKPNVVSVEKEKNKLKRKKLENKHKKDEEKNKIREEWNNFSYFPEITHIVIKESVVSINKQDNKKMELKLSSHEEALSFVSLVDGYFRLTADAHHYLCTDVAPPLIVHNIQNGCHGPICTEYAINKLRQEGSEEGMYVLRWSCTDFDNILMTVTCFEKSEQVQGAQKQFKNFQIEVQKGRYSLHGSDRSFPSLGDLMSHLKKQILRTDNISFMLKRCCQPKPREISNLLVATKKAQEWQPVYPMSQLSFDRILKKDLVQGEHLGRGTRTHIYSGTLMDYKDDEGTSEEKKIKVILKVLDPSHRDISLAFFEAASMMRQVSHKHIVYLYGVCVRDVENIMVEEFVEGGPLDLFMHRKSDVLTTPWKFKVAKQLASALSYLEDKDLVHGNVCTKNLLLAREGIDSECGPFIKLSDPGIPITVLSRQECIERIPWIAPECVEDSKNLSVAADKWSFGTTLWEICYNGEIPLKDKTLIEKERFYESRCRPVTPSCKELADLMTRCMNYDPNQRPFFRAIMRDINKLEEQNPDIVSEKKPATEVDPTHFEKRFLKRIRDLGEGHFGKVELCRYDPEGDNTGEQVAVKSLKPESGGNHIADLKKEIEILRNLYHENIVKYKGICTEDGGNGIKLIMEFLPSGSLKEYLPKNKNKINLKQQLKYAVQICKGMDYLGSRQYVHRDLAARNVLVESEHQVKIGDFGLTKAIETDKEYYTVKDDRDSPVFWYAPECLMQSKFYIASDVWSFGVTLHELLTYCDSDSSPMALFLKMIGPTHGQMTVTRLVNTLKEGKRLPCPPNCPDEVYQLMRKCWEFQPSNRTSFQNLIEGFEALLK
Method: as §6
as §7, with “JAK1” for “Aurora-A”, “20” for “8”, “Tris/HCl” for “MOPS”, “7.5,” for “7.0,”, “500” for “200”, “GEEPLYWSFPAKKK,” for “LRRASLG (Kemptide),”
as §8

[5] = Pharmacokinetics after intravenous and oral administration in rats; format: in vivo; settings: for Clearance (CL) after iv dosing / AUC(0-t) / half-life / Vd: dose 1 mg/kg, iv dosing; for F: oral bioavailability, iv dose 1 mg/kg; for AUC(0-t) / half-life / Vd: rat, plasma; for Vd: read-out: Vss
Method: The compounds disclosed herein are assessed in pharmacokinetic studies in mice, rats, dogs or monkeys. The compounds are administered as a water solution, 2% HPMC+1% TWEEN®80 in water solution, 5% DMSO+5% solutol in saline, 4% MC suspension or capsule. For the intravenous administration, the animals are generally given at 0.5, 1 or 2 mg/kg dose. For the oral (p.o.) dosing, mice and rats are generally given 0.5, 1, 5 or 10 mg/kg dose, and dogs and monkeys are generally given 10 mg/kg dose. The blood samples (0.3 mL) are drawn at 0.25, 0.5, 1.0, 2.0, 3.0, 4.0, 6.0, 8.0, 12 and 24 h time points or 0.083, 0.25, 0.5, 1.0, 2.0, 4.0, 6.0, 8.0 and 24 h time points and centrifuged at 3,000 or 4000 rpm for 2 to 10 min. The plasma solutions are collected, and stored at −20° C. or −70° C. until analyzed by LC/MS/MS as described above.

Row | SMILES | half-life at 5 μM [1] [min] | CLint scaled at 5 μM [1] [mL/min/kg] | pIC50 [2] | half-life at 5 μM [3] [min] | CLint scaled at 5 μM [3] [mL/min/kg] | pIC50 [4] | Clearance (CL) after iv dosing [5] [mL/min/kg] | F [5] [%] | AUC(0-t) [5] [ng·h/mL] | half-life [5] [min] | Vd [5] [L/kg]
1 | CC(=O)N1CC2CC(Nc3nc(Nc4cnn(CC(C)(C)O)c4)ncc3Cl)CC2C1 (stereo not shown) [Ex. 1, 1-(5-((5-chloro-2-((1-(2-hydroxy-2-methylpropyl)-1H-pyrazol-4-yl)amino)pyrimidin-4-yl)amino)hexahydrocyclopenta[c]pyrrol-2(1H)-yl)ethanone] | 112 | 22.2 | 7.24 | 148 | 11.7 | 8.00 | 46.2 | 61.7 | 360 | 38.4 | 1.53
2 | CC(C)(O)Cn1cc(Nc2ncc(Cl)c(NC3CC4CN(C(=O)CC#N)CC4C3)n2)cn1 (stereo not shown) [Ex. 2, 3-(5-((5-chloro-2-((1-(2-hydroxy-2-methylpropyl)-1H-pyrazol-4-yl)amino)pyrimidin-4-yl)amino)hexahydrocyclopenta[c]pyrrol-2(1H)-yl)-3-oxopropanenitrile] | 107 | 23.3 | 7.55 | 106 | 16.4 | 8.70 |  |  |  |  | 
3 | Cn1cc(Nc2ncc(Cl)c(NC3CC4CN(C(=O)CC5CC5)CC4C3)n2)cn1 (stereo not shown) [Ex. 12, 1-(5-((5-chloro-2-((1-methyl-1H-pyrazol-4-yl)amino)pyrimidin-4-yl)amino)hexahydrocyclopenta[c]pyrrol-2(1H)-yl)-2-cyclopropylethanone] |  |  | 7.77 |  |  | 7.92 | 60.2 | 30.5 | 278 | 14.4 | 0.99
4 | Cn1cc(Nc2ncc(Cl)c(NC3CC4CN(S(=O)(=O)C5CC5)CC4C3)n2)cn1 (stereo not shown) [Ex. 13, 5-chloro-N^4-(2-(cyclopropylsulfonyl)octahydrocyclopenta[c]pyrrol-5-yl)-N^2-(1-methyl-1H-pyrazol-4-yl)pyrimidine-2,4-diamine] | 5.48 | 454 | 8.30 | 33.1 | 52.5 |  |  |  |  |  | 
5 | Cn1cc(Nc2ncc(Cl)c(NC3CC4CN(C(=O)C5CC5)CC4C3)n2)cn1 (stereo not shown) [Ex. 14, (5-((5-chloro-2-((1-methyl-1H-pyrazol-4-yl)amino)pyrimidin-4-yl)amino)hexahydrocyclopenta[c]pyrrol-2(1H)-yl)(cyclopropyl)methanone] | 3.33 | 745 | 7.68 | 44.2 | 39.4 | 8.22 |  |  |  |  | 
6 | Cn1cc(Nc2ncc(Cl)c(NC3CC4CN(CC(C)(C)O)CC4C3)n2)cn1 (stereo not shown) [Ex. 16, 1-(5-((5-chloro-2-((1-methyl-1H-pyrazol-4-yl)amino)pyrimidin-4-yl)amino)hexahydrocyclopenta[c]pyrrol-2(1H)-yl)-2-methylpropan-2-ol] | 6.28 | 395 |  | 210 | 8.27 | 7.49 |  |  |  |  | 
7 | Cn1cc(Nc2ncc(Cl)c(NC3CC4CN(S(=O)(=O)CC5CC5)CC4C3)n2)cn1 (stereo not shown) [Ex. 17, 5-chloro-N^4-(2-((cyclopropylmethyl)sulfonyl)octahydrocyclopenta[c]pyrrol-5-yl)-N^2-(1-methyl-1H-pyrazol-4-yl)pyrimidine-2,4-diamine] | 7.15 | 347 | 8.22 | 35.7 | 48.6 |  | 54.2 | 37.3 | 308 | 17.4 | 1.44
8 | Cn1cc(Nc2ncc(Cl)c(NC3CC4CN(c5ccc(C#N)nn5)CC4C3)n2)cn1 (stereo not shown) [Ex. 30, 6-(5-((5-chloro-2-((1-methyl-1H-pyrazol-4-yl)amino)pyrimidin-4-yl)amino)hexahydrocyclopenta[c]pyrrol-2(1H)-yl)pyridazine-3-carbonitrile] | 8.07 | 308 |  | 24.9 | 69.8 |  | 15.5 | 268.4 | 1140 | 36.6 | 0.71
9 | Cn1cc(Nc2ncc(Cl)c(NC3CC4CN(S(=O)(=O)C(C)(C)C)CC4C3)n2)cn1 (stereo not shown) [Ex. 31, N^4-(2-(tert-butylsulfonyl)octahydrocyclopenta[c]pyrrol-5-yl)-5-chloro-N^2-(1-methyl-1H-pyrazol-4-yl)pyrimidine-2,4-diamine] |  |  | 7.30 |  |  |  |  |  |  |  | 
10 | O=C(NC1CC1)N1CC2CC(Nc3nc(Nc4cnn(C5CCNC5)c4)ncc3Cl)CC2C1 (stereo not shown) [Ex. 40, 5-((5-chloro-2-((1-(pyrrolidin-3-yl)-1H-pyrazol-4-yl)amino)pyrimidin-4-yl)amino)-N-cyclopropylhexahydrocyclopenta[c]pyrrole-2(1H)-carboxamide] |  |  | 7.92 |  |  |  |  |  |  |  | 
11 | CC(O)Cn1cc(Nc2ncc(Cl)c(NC3CC4CN(C(=O)NC5CC5)CC4C3)n2)cn1 (stereo not shown) [Ex. 41, 5-((5-chloro-2-((1-(2-hydroxypropyl)-1H-pyrazol-4-yl)amino)pyrimidin-4-yl)amino)-N-cyclopropylhexahydrocyclopenta[c]pyrrole-2(1H)-carboxamide] | 43.7 | 56.8 | 7.72 | 73.5 | 23.7 |  |  |  |  |  | 
12 | CC(C)(O)Cn1cc(Nc2ncc(Cl)c(NC3CC4CN(S(=O)(=O)NC5CC5)CC4C3)n2)cn1 (stereo not shown) [Ex. 43, 5-((5-chloro-2-((1-(2-hydroxy-2-methylpropyl)-1H-pyrazol-4-yl)amino)pyrimidin-4-yl)amino)-N-cyclopropylhexahydrocyclopenta[c]pyrrole-2(1H)-sulfonamide] |  |  | 8.05 |  |  |  |  |  |  |  | 
13 | CC(=O)N1CC2CC(CC#N)(Nc3nc(Nc4cnn(C)c4)ncc3Cl)CC2C1 (stereo not shown) [Ex. 48, 2-(2-acetyl-5-((5-chloro-2-((1-methyl-1H-pyrazol-4-yl)amino)pyrimidin-4-yl)amino)octahydrocyclopenta[c]pyrrol-5-yl)acetonitrile] | 100 | 24.8 |  | 310 | 5.6 |  | 34.7 | 40.7 | 485 | 43.2 | 0.81
